Measurements: US20080221167A1, “Selective Insecticides Based on Haloalkylnicotinic Acid Derivatives, Anthranilic Acid Diamides, or Phthalic Acid Diamides and Safeners” (priority 2004, published 2008)

Columns and labels:
Type in all cases: in vivo
Metopolophium dirhodum = Metopolophium dirhodum test, spray application dripping wet (barley plants); conditions: 100 ppm, alone
Procedure: (§1) Solvent: water Adjuvant: rapeseed oil methyl ester
(§2) To produce a suitable application solution, 1 part by weight of the formulation is mixed with the appropriate amount of water and the adjuvant and the concentrate is diluted with water to the desired concentration.
Metopolophium dirhodum Test
Barley plants (Hordeum vulgare) which are heavily infested by a cereal aphid (Metopolophium dirhodum) are sprayed to runoff point with the desired concentration of the application solution.
(§3) After the desired period of time, the kill in % is determined. 100% means that all aphids have been killed; 0% means that none of the aphids have been killed. The determined kill rates are entered into Colby's formula (see sheet 1).

Heliothis armigera = Heliothis armigera test, spray treatment dripping wet (cotton plants); conditions: alone; for Kill in % after 7d: Table A1; for Kill in % after 3d: Table A2
Procedure: (§4) To produce a suitable solution, 1 part by weight of formulation is mixed with the stated amount of water and adjuvant and the concentrate is diluted with water to the desired concentration.
Cotton plants (Gossypium hirsutum) are sprayed to runoff point with the desired use concentration and populated with caterpillars of the cotton bollworm (Heliothis armigera) while the leaves are still moist.
(§5) After the desired period of time, the kill in % is determined. 100% means that all larvae have been killed; 0% means that none of the larvae have been killed. The determined kill rates are entered into Colby's formula (see above).

Spodoptera frugiperda = Spodoptera frugiperda test, spray treatment dripping wet (corn plants); conditions: Table C2; 100 ppm; alone
Procedure: as §4
Spodoptera frugiperda Test
Corn plants (Zea mais) are sprayed to runoff point with the desired use concentration and populated with caterpillars of the armyworm (Spodoptera frugiperda) while the leaves are still moist.
as §5

Plutella xylostella = Plutella xylostella test, spray treatment dripping wet (cabbage plants); conditions: alone; for Kill in % after 7d: Table B1
Procedure: as §4
Cabbage plants (Brassica pekinesis) are sprayed to runoff point with the desired use concentration and populated with larvae of the diamondback moth (Plutella xylostella) while the leaves are still moist.
as §5

Myzus persicae = Myzus persicae test, spray application dripping wet (bell pepper plants); conditions: alone; for Kill in % after 3d: Table F1; for Kill in % after 7d: Table F2
Procedure: as §1, §2
Bell pepper plants (Capsicum sativum) which are heavily infested by the green peach aphid (Myzus persicae) are sprayed to runoff point with the desired concentration of the application solution.
as §3

Aphis gossypii = Aphis gossypii test, spray application dripping wet (cotton plants); conditions: alone
Procedure: as §1, §2
Cotton plants (Gossypium herbaceum) which are heavily infested by the cotton aphid (Aphis gossypii) are sprayed to runoff point with the desired concentration of the application solution.
as §3

CC1(C)OC(c2ccco2)CN1C(=O)C(Cl)Cl (stereo not shown) [furilazole, 3-dichloroacetyl-5-(2-furanyl)-2,2-dimethyloxazolidine]
0%: Kill in % after 7d (Metopolophium dirhodum; Table E1) | Kill in % after 7d (Metopolophium dirhodum; Table E2) | Kill in % after 7d (Heliothis armigera; 25 ppm) | Kill in % after 3d (Heliothis armigera; 50 ppm) | Kill in % after 3d (Spodoptera frugiperda) | Kill in % after 7d (Plutella xylostella; 50 ppm) | Kill in % after 3d (Myzus persicae; 100 ppm) | Kill in % after 7d (Aphis gossypii; Table D1, 100 ppm) | Kill in % after 7d (Aphis gossypii; Table D2, 100 ppm)

C=CCN(CC=C)C(=O)C(Cl)Cl [dichlormid, 2,2-dichloro-N,N-di-2-propenylacetamide]
0%: Kill in % after 7d (Metopolophium dirhodum; Table E1) | Kill in % after 7d (Metopolophium dirhodum; Table E2) | Kill in % after 7d (Heliothis armigera; 100 ppm) | Kill in % after 3d (Heliothis armigera; 100 ppm) | Kill in % after 3d (Spodoptera frugiperda) | Kill in % after 3d (Plutella xylostella; Table B2, 100 ppm) | Kill in % after 3d (Myzus persicae; 25 ppm) | Kill in % after 7d (Myzus persicae; 100 ppm) | Kill in % after 7d (Aphis gossypii; Table D1, 100 ppm) | Kill in % after 7d (Aphis gossypii; Table D2, 50 ppm)

Clc1cc(Cl)nc(-c2ccccc2)n1 [fenclorim, 4,6-dichloro-2-phenylpyrimidine]
0%: Kill in % after 7d (Metopolophium dirhodum; Table E1) | Kill in % after 7d (Metopolophium dirhodum; Table E2) | Kill in % after 3d (Heliothis armigera; 100 ppm) | Kill in % after 3d (Spodoptera frugiperda) | Kill in % after 7d (Plutella xylostella; 25 ppm) | Kill in % after 3d (Myzus persicae; 25 ppm) | Kill in % after 7d (Myzus persicae; 100 ppm) | Kill in % after 7d (Aphis gossypii; Table D1, 100 ppm) | Kill in % after 7d (Aphis gossypii; Table D2, 100 ppm)
